Values after ≈ are worked out from the molar mass of the structure shown.
Assays:
[1] = target: T1, Human collagenase (MMP-1) (Homo sapiens, UniProt P03956); assay: Biochemical assay (Protocol A), Ki at steady state, MMP-1; details: preincubation, 37° C., pH=7.4, read-out: Ki at steady state (Ki*) for inhibition of MMP-1
T1 sequence (P03956 101-269): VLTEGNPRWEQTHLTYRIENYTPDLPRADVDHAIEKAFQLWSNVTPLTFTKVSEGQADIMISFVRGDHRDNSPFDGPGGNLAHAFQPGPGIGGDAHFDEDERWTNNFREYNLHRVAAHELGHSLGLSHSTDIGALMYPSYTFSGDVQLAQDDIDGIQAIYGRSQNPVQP
Description: (§1) Human gelatinase-A (MMP-2) was obtained as pro-enzyme (72 kDa) and was activated with 1 mM 4-aminophenylmercuric acetate for 30 min at 37° C. immediately prior to use. Human stromelysin-1-255 (MMP-3) was obtained as a recombinant pro-enzyme isolated from E. coli and activated by heat (1 h, 55° C.).
(§2) The substrate was the commercial quenched-fluorescence peptide Mca-Pro-Leu-Gly-Leu-Dpa-Ala-Arg-NH2, that is (7-methoxycoumarin4-yl)Acetyl-Pro-Leu-Glv-Leu-(3-[2,4-dinitrophenyl]-L-2,3-diamino-propionyl)-Ala-Arg-NH2 (C. G. Knight et al., FEBS Lett.296:263, 1992). The enzymes cleave at the Gly-Leu bond, removing the internally quenching Dpa group. Release of the highly fluorescent peptide Mca-Pro-Leu was followed fluorimetrically at 37° C. using a Perkin Elmer LS-50 Fluorescence Spectrophotometer fitted with a thermostatted four position stirring cell changer. The excitation wavelength was set at 326 nm (bandwidth 5 nm) and the emission at 392 nm (bandwidth 20 nm). Km values of this substrate for the three MMP's is 70 μM or more (Knight et al., reference above). Substrate concentration was 2 μM in the tests, so that we could approximate to unit the term (1+[substrate]/KM) in calculations. The substrate was stable for over 60 minutes in the assay conditions, giving no appreciable increment of fluorescence. Full response was adjusted against 200 nM Mca-Pro-Leu-OH (the released fluorescent peptide) and the instrument was calibrated in the range 0-100 nM Mca-Pro-Leu-OH, corresponding to 0-5% extent of hydrolysis of the 2 μM substrate. The aqueous assay buffer was 50 mM Tris/HCl pH=7.4 containing 0.15 M NaCl, 10 mM CaCl2, 0.01 mM ZnCl2 and 0.05% Brij 35. The concentration of the activated enzyme was determined by titration against representative inhibitors described in the literature and synthesized in house: Roche Ro31-9790 (N. G. Knebel et al., J. Chromatogr. B 673:213, 1995) for MMP-1, and Celltech CT-1418 (compound 1 in S. K. Chander, J. Pharm. Sci. 84:404, 1995) for MMP-2 and MMP-3. Enzyme concentrations in the tests were set at 1.0 nM for MMP-1, 0.04 nM for MMP-2, and 3.0 nM for M-3. Under our assay conditions, we measured keat/KM values of 26900, 669000 and 9740 1/(M×s) for MMP-1, MMP-2 and MMP-3, respectively. All the three enzymes were found stable for over three hours in the assay conditions.
(§3) The inhibition constant for compounds of the present invention was measured at steady state (Ki*; see J. F. Morrison and C. T. Walsh, Adv. Enzymol. Relat. Areas Mol. Biol. 61:201, 1988), upon preincubation experiment, by measuring V0, the initial rate in the absence of inhibitor, and Vs, the steady-state velocity, at different concentrations of inhibitors in the region of their enzyme-inhibitor dissociation constants.
(§4) On a routine basis, 1.94 mL of assay buffer was pre-heated at 37° C. in a vial, 0.02 mL of inhibitor in DMSO (or DMSO only), and 0.02 ml of 100 nM MMP-1 or 4 nM MMP-2 or 300 nM MMP-3 were added, mixed, and the vial was held at 37° C. for 5-180 minutes. Then 0.02 ml of 0.2 mM substrate was added, mixed and transferred into a pre-heated cell. The sample was allowed to equilibrate in the cuvette for 3-5 min at 37° C. against small changes in temperature and changes in the enzyme-inhibitor equilibria related to addition of substrate. After that, the linear increase of fluorescence was monitored over 3-5 min, and the slope (Vo or Vs) was obtained. Inhibitor concentrations were varied to collect data over Vs/Vo ratio ranging from 0.05 to 0.95. The values of Ki* were calculated by nonlinear weighted regression to the tight-binding equation according to Morrison and Walsh above:
(§5) Vs/Vo=[1/(2×Et)]×SQR[(Ki*+It−Et)^2+4×Ki*×Et]−(Ki*+It−Et)
(§6) wherein Et is the total enzyme concentration, and It is the total inhibitor concentration. The following Table I lists Ki* obtained for some representative examples: […]

[2] = target: T2, Human gelatinase-A (MMP-2) (Homo sapiens, UniProt P08253); assay: Biochemical assay (Protocol A), Ki at steady state, MMP-2; details: preincubation, 37° C., pH=7.4, read-out: Ki at steady state (Ki*) for inhibition of MMP-2
T2 sequence (P08253 110-660): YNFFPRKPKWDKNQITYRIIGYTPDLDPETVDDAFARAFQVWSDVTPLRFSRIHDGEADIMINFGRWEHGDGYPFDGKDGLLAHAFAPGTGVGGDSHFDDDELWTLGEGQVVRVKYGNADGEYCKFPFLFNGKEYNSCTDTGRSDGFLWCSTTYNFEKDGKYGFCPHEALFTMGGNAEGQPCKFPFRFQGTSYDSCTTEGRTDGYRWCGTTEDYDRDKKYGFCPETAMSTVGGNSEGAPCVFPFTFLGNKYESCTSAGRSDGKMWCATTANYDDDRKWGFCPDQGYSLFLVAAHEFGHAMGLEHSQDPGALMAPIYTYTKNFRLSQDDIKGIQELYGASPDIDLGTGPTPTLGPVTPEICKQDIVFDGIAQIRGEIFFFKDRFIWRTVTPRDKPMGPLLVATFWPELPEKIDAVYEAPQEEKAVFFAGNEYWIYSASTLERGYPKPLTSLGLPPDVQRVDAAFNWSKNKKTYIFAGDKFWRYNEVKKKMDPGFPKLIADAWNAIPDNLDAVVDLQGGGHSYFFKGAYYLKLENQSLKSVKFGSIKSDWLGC
Description: as §1, §2, §3, §4, §5, §6

[3] = target: T3, Human stromelysin-1-255 (MMP-3) (Homo sapiens, UniProt P08254); assay: Biochemical assay (Protocol A), Ki at steady state, MMP-3; details: preincubation, 37° C., pH=7.4, read-out: Ki at steady state (Ki*) for inhibition of MMP-3
T3 construct: host or cells: E. coli
T3 sequence (P08254 100-255 limits assumed): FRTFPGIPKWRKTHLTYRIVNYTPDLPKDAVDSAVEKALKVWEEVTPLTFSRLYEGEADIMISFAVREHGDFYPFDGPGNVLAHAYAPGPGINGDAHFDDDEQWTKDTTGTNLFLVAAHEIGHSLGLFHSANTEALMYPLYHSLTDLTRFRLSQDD
Description: as §1, §2, §3, §4, §5, §6

[4] = Aqueous solubility; assay type: physicochemical; details: 25° C.; for solubility: water
[5] = PK parameters, oral route, rat; assay type: in vivo; details: 10-15 mg/kg; for bioavailability: read-out: % F (oral bioavailability)
Description: (§7) As an additional example, Table 4 reports the maximum plasma concentration (Cmax) and oral bioavailability (% F; calculated from dose-normalised ratio of oral to i.v. mean AUC values) after oral administration to rats or cynomolgus monkeys of a […] of some representative compounds of the present invention.

[6] = PK parameters, oral route, cynomolgus monkey; assay type: in vivo; details: 10-15 mg/kg
Description: as §7

[7] = PK parameters in rats, iv route; details: rat, in vivo, 10-15 mg/kg
Description: As a further example, Table 3 reports clearance and AUC values measured after intravenous administration to rats of a […] of some representative compounds of the present invention.

[8] = plasma, dose-normalised ratio of oral to i.v. mean AUC
[9] = dose-normalised ratio of oral to i.v. mean AUC

Ki [1]	Ki [2]	Ki [3]	solubility ([4]; Conditions B)	Structure (SMILES)	also measured
15 nM	67 nM	730 nM	> 8200 µg/mL	N[C@H](C(=O)NO)[C@@H](CC1CCCC1)C(=O)N1CCCCC1 [Example 22, (3S-Amino-2R-cyclopentylmethyl-4-hydroxyamino)succinyl-piperidinamide]	bioavailability [5, 8]: 62%; Cmax ([5]; plasma, read-out: Cmax): 5490 ng/mL
26 nM	58 nM	490 nM	–	C[C@@H](NC(=O)[C@H](CC1CCCC1)[C@H](N)C(=O)NO)C1CCCCC1 [Example 50, (3S-Amino-2R-cyclopentylmethyl-4-hydroxyamino)succinyl-(1R-cyclohexylethyl)amide]	Cmax [5]: 3146 ng/mL; % F (oral bioavailability) [5, 9]: 50%; Cmax [6]: 49516 ng/mL; % F (oral bioavailability) [6, 9]: 70%
4500 nM	230 nM	1100 nM	–	COc1ccc(CCC[C@@H](C(=O)N2CCOCC2)[C@@H](C(=O)NO)N(C)C)cc1 [Example 19, (3S-N,N-Dimethylamino-4-hydroxyamino-2R-(4-methoxy)phenpropyl)succinyl-morpholinamide]	solubility ([4]; Conditions A): 7500 µg/mL (≈ 19.1 mM); AUC [7]: 9380 ng·h/mL; clearance [7]: 27 mL/min/kg
41 nM	190 nM	380 nM	–	Cc1ccc(S(=O)(=O)N[C@H](C(=O)NO)[C@@H](CC(C)C)C(=O)N2CCOCC2)cc1 [Example 12, (4-Hydroxyamino-2R-isobutyl-3S-(4-toluenesulfonyl)amino)succinyl-morpholinamide]	AUC [7]: 6580 ng·h/mL; clearance [7]: 39 mL/min/kg; bioavailability [5, 8]: 21%; Cmax ([5]; plasma, read-out: Cmax): 2440 ng/mL
850 nM	79 nM	860 nM	> 9600 µg/mL	COc1ccc(CCC[C@@H](C(=O)N2CCCCC2)[C@H](N)C(=O)NO)cc1 [Example 18, (3S-Amino-4-hydroxyamino-2R-(4-methoxy)phenpropyl)succinyl-piperidinamide]	–
6.5 nM	20 nM	240 nM	7100 µg/mL (≈ 16.4 mM)	N[C@H](C(=O)NO)[C@@H](CC1CCCC1)C(=O)N1CCN(Cc2ccc3c(c2)OCO3)CC1 [Example 27, (3S-Amino-2R-cyclopentylmethyl-4-hydroxyamino)succinyl-(4-piperonyl)piperazinamide]	AUC [7]: 11300 ng·h/mL; clearance [7]: 23 mL/min/kg; bioavailability [5, 8]: 58%; Cmax ([5]; plasma, read-out: Cmax): 7910 ng/mL; bioavailability ([6]; plasma, dose-normalised ratio of oral to i.v. mean AUC, read-out: % F (oral bioavailability)): 34%; Cmax ([6]; plasma, read-out: Cmax): 3130 ng/mL
6400 nM	94 nM	2400 nM	> 9600 µg/mL	COc1ccc(CCC[C@@H](C(=O)N2CCOCC2)[C@H](N)C(=O)NO)cc1 [Example 16, (3S-Amino-4-hydroxyamino-2R-(4-methoxy)phenpropyl)succinyl-morpholinamide]	–
7500 nM	600 nM	10000 nM	–	COc1ccc(CCC[C@@H](C(=O)N2CCC2)[C@H](N)C(=O)NO)cc1 [Example 28, (3S-Amino-4-hydroxyamino-2R-(4-methoxy)phenpropyl)succinyl-azetidinamide]	–

More lines, now with the values behind:

Structure (SMILES)	Ki [1]	Ki [2]	Ki [3]	solubility ([4]; Conditions B)	also measured
COc1ccc(S(=O)(=O)N[C@H](C(=O)NO)[C@@H](CC(C)C)C(=O)N2CCCCC2)cc1 [Example 7, (4-Hydroxyamino-3S-(4-methoxyphenylsulfonyl)amino-2R-isobutyl)succinyl-piperidin-amide]	70 nM	250 nM	720 nM	–	solubility ([4]; Conditions A): 4000 µg/mL (≈ 9.06 mM)
CC(C)C[C@@H](C(=O)N1CCCCC1)[C@@H](C(=O)NO)N(C)C [Example 5, (3SN,N-Dimethylamino-4-hydroxyamino-2R-isobutyl)succinyl-piperidinamide]	61 nM	310 nM	940 nM	> 6000 µg/mL	–
CC(C)C[C@@H](C(=O)N1CCOCC1)[C@H](N)C(=O)NO [Example 10, (3S-Amino-4-hydroxyamino-2R-isobutyl)succinyl-morpholinamide]	180 nM	340 nM	2200 nM	–	AUC [7]: 11100 ng·h/mL; clearance [7]: 24 mL/min/kg; bioavailability [5, 8]: 28%; Cmax ([5]; plasma, read-out: Cmax): 2120 ng/mL
CC(C)C[C@@H](C(=O)N1CCCCC1)[C@H](NC(=O)OC(C)(C)C)C(=O)NO [Example 2, (3S-tert-Butoxycarbonylamino-4-hydroxyamino-2R-isobutyl)succinyl-piperidinamide]	1100 nM	2800 nM	13000 nM	–	solubility ([4]; Conditions A): > 4500 µg/mL
COc1ccc(CCC[C@@H](C(=O)N2CCOCC2)[C@H](N)C(=O)O)cc1 [Example 14, (3S-Amino-4-hydroxy-2R-(4-methoxy)phenpropyl)succinyl-morpholinamide]	–	–	–	–	Aqueous solubility ([4]; Conditions B): >14000 µg/mL
CC(C)C[C@@H](C(=O)N1CCCCC1)[C@H](N)C(=O)NO [Example 3, (3S-Amino-4-hydroxyamino-2R-isobutyl)succinyl-piperidinamide]	88 nM	290 nM	2500 nM	–	solubility ([4]; Conditions A): > 9500 µg/mL
COc1ccc(CCC[C@@H](C(=O)N2CCOCC2)[C@H](NC(=O)OC(C)(C)C)C(=O)O)cc1 [Example 13, (3S-tert-Butoxycarbonylamino-4-hydroxy-2R-(4-methoxy)phenpropyl)succinyl-morpholinamide]	–	–	–	–	Aqueous solubility ([4]; Conditions A): 6710 µg/mL

Reference: US6482827B1, “Matrix metalloproteinase inhibitors” (Pharmacia & Upjohn S.p.A., priority 1997, dated 2002)
